This note sets out measurements from PubChem BioAssay AID330 (DTP/NCI, 2004).

Several values for one entry are separate records, joined by “and”; a condition that tells them apart may be missing. Equal values may be shown once. Toxic doses and inconclusive results are not listed. Peptide text beside a SMILES is read from it. * marks the point of attachment. Cbz = O=C(OCc1ccccc1)*

This test deals with P388 leukemia ip, CD2F1 mice, survival T/C. Description: NCI In Vivo Anticancer Drug Screen. Data for tumor model P388 Leukemia (intraperitoneal) in CD2F1 (CDF1) mice. To be noted: endpoint: median survival time, higher = longer survival. Summed up: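 Mice carrying the transplanted tumor received test compound or vehicle. Survival was recorded in each group, and the value is the treated-group measurement divided by that of the vehicle-treated control group.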

The mark [1] stands for this setting: dose: 60.0 mg/kg/injection, schedule: Q01DX005 (ip), vehicle: saline with Tween-80.
The mark [2] stands for this setting: dose: 120.0 mg/kg/injection, schedule: Q01DX005 (ip), vehicle: saline with Tween-80.
[3] abbreviates: dose: 240.0 mg/kg/injection, schedule: Q01DX005 (ip), vehicle: saline with Tween-80.
Setting [4] is: dose: 50.0 mg/kg/injection, schedule: Q01DX005 (ip), vehicle: Klucel (hydroxypropylcellulose) (HPC).
[5] abbreviates: dose: 100.0 mg/kg/injection, schedule: Q01DX005 (ip), vehicle: Klucel (hydroxypropylcellulose) (HPC).
Setting [6] is: dose: 200.0 mg/kg/injection, schedule: Q04DX003 (ip), vehicle: saline with Tween-80.
Where [7] appears, read: dose: 200.0 mg/kg/injection, schedule: Q01DX005 (ip), vehicle: Klucel (hydroxypropylcellulose) (HPC).
Where [8] appears, read: dose: 60.0 mg/kg/injection, schedule: Q01DX005 (ip), vehicle: Klucel (hydroxypropylcellulose) (HPC).
Setting [9] is: dose: 120.0 mg/kg/injection, schedule: Q01DX005 (ip), vehicle: Klucel (hydroxypropylcellulose) (HPC).
[10] abbreviates: dose: 25.0 mg/kg/injection, schedule: Q01DX009 (ip), vehicle: saline with Tween-80.
Setting [11] is: dose: 50.0 mg/kg/injection, schedule: Q01DX009 (ip), vehicle: saline with Tween-80.
The mark [12] stands for this setting: dose: 100.0 mg/kg/injection, schedule: Q01DX009 (ip), vehicle: saline with Tween-80.
[13] abbreviates: dose: 50.0 mg/kg/injection, schedule: Q01DX009 (ip), vehicle: Klucel (hydroxypropylcellulose) (HPC).
The mark [14] stands for this setting: dose: 100.0 mg/kg/injection, schedule: Q01DX009 (ip), vehicle: Klucel (hydroxypropylcellulose) (HPC).
[15] abbreviates: dose: 200.0 mg/kg/injection, schedule: Q01DX009 (ip), vehicle: Klucel (hydroxypropylcellulose) (HPC).

As to `C/C(=N\NC(=S)N1CCCCCC1)c1nccs1`, the T/C was 98 % of control (dose: 12.5 mg/kg/injection, schedule: Q01DX005 (ip), vehicle: saline with Tween-80); 100 % of control (dose: 25.0 mg/kg/injection, schedule: Q01DX005 (ip), vehicle: saline with Tween-80); 102 % of control (dose: 50.0 mg/kg/injection, schedule: Q01DX005 (ip), vehicle: saline with Tween-80).

As to `CSC(=N\N=C\c1cccs1)/N=C/N(C)C`, the T/C runs as follows: under setting [1], 92 % of control; under setting [2], 99 % of control; under setting [3], 97 % of control.

Regarding `S=C=NP1(N=C=S)=NP(N=C=S)(N=C=S)=NP(N=C=S)(N=C=S)=N1` (centres undefined), the T/C under setting [4] is 107 % of control and the T/C under setting [5] was 97 % of control.

Take `CC1C(=O)SCC1(O)c1ccccc1` (centres undefined): the T/C was 102 % of control (dose: 100.0 mg/kg/injection, schedule: Q04DX002 (ip), vehicle: Klucel (hydroxypropylcellulose) (HPC)); 103 % of control (dose: 200.0 mg/kg/injection, schedule: Q04DX002 (ip), vehicle: Klucel (hydroxypropylcellulose) (HPC)); 107 % of control (dose: 400.0 mg/kg/injection, schedule: Q04DX002 (ip), vehicle: Klucel (hydroxypropylcellulose) (HPC)).

For the compound `[O-][n+]1ccc(Br)c(/C=C/c2ccccc2)c1`, the T/C reads like this: (dose: 30.0 mg/kg/injection, schedule: Q01DX005 (ip), vehicle: saline with Tween-80) 101 % of control; under setting [1], 101 % of control; under setting [2], 102 % of control; under setting [3], 101 % of control.

With `CC(=O)OC1CC(n2cc(C)c(=O)[nH]c2=O)OC1COP(=O)(N1CC1(C)C)N1CC1(C)C` (centres undefined), the T/C reads like this: (dose: 25.0 mg/kg/injection, schedule: Q04DX003 (ip), vehicle: saline with Tween-80) 110 % of control; under setting [6], 159 % of control.

Take `O=C1NC(O)c2cc(O)ccc2O1` (centres undefined): the T/C was 100 % of control under setting [4], 100 % of control under setting [5] and 111 % of control under setting [7].

As to `CC(=O)Nc1ccc(S(=O)(=O)n2c(=O)oc3cc(Cl)ccc32)cc1`, the T/C runs as follows: under setting [4], 86 % of control; under setting [5], 99 % of control; under setting [7], 86 % of control.

On to `CCCCS(=O)CCC(N)C(=O)O` (centres undefined), for which the T/C was 98 % of control under setting [1], 94 % of control under setting [2] and 93 % of control under setting [3].

For `Nc1nnc2nc(C(C(=O)c3ccccc3Cl)c3nc4nnc(N)n4[nH]c3=O)c(=O)[nH]n12`, the T/C is 101 % of control under setting [1], 98 % of control under setting [2] and 99 % of control under setting [3].

As to `O=C1c2ccccc2C(=O)c2c1cn1c2Cc2ccccc2C1`, the T/C (dose: 30.0 mg/kg/injection, schedule: Q01DX005 (ip), vehicle: Klucel (hydroxypropylcellulose) (HPC)) is 103 % of control and 97 % of control; the T/C under setting [8] is 113 % of control and 94 % of control; the T/C under setting [9] is 103 % of control and 113 % of control and 96 % of control; the T/C (dose: 0.25 ml/mouse/injection, schedule: Q01DX005 (ip), vehicle: other) is 107 % of control; the T/C (dose: 0.5 ml/mouse/injection, schedule: Q01DX005 (ip), vehicle: other) was 106 % of control.

For the compound `COCc1cccc2ccnc(C)c12`, the T/C (dose: 100.0 mg/kg/injection, schedule: Q01DX001 (ip), vehicle: saline with Tween-80) was 104 % of control; the T/C (dose: 200.0 mg/kg/injection, schedule: Q01DX001 (ip), vehicle: saline with Tween-80) is 108 % of control; the T/C (dose: 400.0 mg/kg/injection, schedule: Q01DX001 (ip), vehicle: saline with Tween-80) was 107 % of control.

`CN1C2CCC1CC(OC(=O)C(CO)c1ccccc1)C2` (centres undefined): the T/C was 105 % of control and 95 % of control (dose: 12.5 mg/kg/injection, schedule: Q01DX009 (ip), vehicle: saline with Tween-80); 100 % of control and 111 % of control under setting [10]; 103 % of control and 92 % of control under setting [11]; 100 % of control and 95 % of control under setting [12]; 112 % of control and 95 % of control (dose: 150.0 mg/kg/injection, schedule: Q01DX009 (ip), vehicle: saline with Tween-80).

On to `[O-]/[N+](=N/O)C(c1ccccc1)c1ccccc1`, for which the T/C by setting is: (dose: 3.0 mg/kg/injection, schedule: Q01DX005 (ip), vehicle: Klucel + Tween-80) 104 % of control; (dose: 6.0 mg/kg/injection, schedule: Q01DX005 (ip), vehicle: Klucel + Tween-80) 98 % of control; (dose: 12.0 mg/kg/injection, schedule: Q01DX005 (ip), vehicle: Klucel + Tween-80) 100 % of control; (dose: 24.0 mg/kg/injection, schedule: Q01DX005 (ip), vehicle: Klucel + Tween-80) 97 % of control.

As to `CCC(=O)O[C@H]1CC[C@H]2[C@@H]3C[C@H](C)C4=CC(=O)C=C[C@]4(C)[C@H]3C(=O)C[C@]12C`, the T/C (dose: 100.0 mg/kg/injection, schedule: Q04DX003 (ip), vehicle: saline with Tween-80) is 90 % of control; the T/C under setting [6] is 104 % of control; the T/C (dose: 400.0 mg/kg/injection, schedule: Q04DX003 (ip), vehicle: saline with Tween-80) is 100 % of control.

In the case of `Cc1ccc(N=Nc2c(O)n(-c3ccc(C)cc3)c(=S)n(-c3ccc(Br)cc3)c2=O)cc1`, the T/C reads like this: (dose: 100.0 mg/kg/injection, schedule: Q04DX002 (ip), vehicle: saline with Tween-80) 99 % of control; (dose: 200.0 mg/kg/injection, schedule: Q04DX002 (ip), vehicle: saline with Tween-80) 102 % of control; (dose: 400.0 mg/kg/injection, schedule: Q04DX002 (ip), vehicle: saline with Tween-80) 105 % of control.

Take `CC(NC(=O)OCc1ccccc1)C(=O)NC(C(N)=O)C(C)C` (stereo not drawn) (Cbz-Ala-Val-NH2; configuration not given here): the T/C is 89 % of control (dose: 12.5 mg/kg/injection, schedule: Q01DX005 (ip), vehicle: Klucel (hydroxypropylcellulose) (HPC)); 100 % of control (dose: 25.0 mg/kg/injection, schedule: Q01DX005 (ip), vehicle: Klucel (hydroxypropylcellulose) (HPC)); 86 % of control under setting [7].

On to `Cc1ccnc(N=Cc2ccccc2O)c1`, for which the T/C was 104 % of control under setting [13], 100 % of control under setting [14] and 100 % of control under setting [15].

As to `COc1cc(-c2cc(=O)c3c(O)cc(O)cc3o2)cc(OC)c1O`, the T/C is 100 % of control (dose: 5.0 mg/kg/injection, schedule: Q01DX009 (ip), vehicle: Klucel (hydroxypropylcellulose) (HPC)); 98 % of control (dose: 10.0 mg/kg/injection, schedule: Q01DX009 (ip), vehicle: Klucel (hydroxypropylcellulose) (HPC)); 100 % of control (dose: 20.0 mg/kg/injection, schedule: Q01DX009 (ip), vehicle: Klucel (hydroxypropylcellulose) (HPC)); 90 % of control (dose: 40.0 mg/kg/injection, schedule: Q01DX009 (ip), vehicle: Klucel (hydroxypropylcellulose) (HPC)).

Take `CC(=O)NC(CSC1(c2ccccc2)c2ccccc2-c2ccccc21)C(=O)O` (centres undefined): the T/C reads like this: under setting [8], 93 % of control; under setting [9], 89 % of control.

With `CCOC(=O)C1CSC(c2c(CO)cnc(C)c2O)N1` (centres undefined), the T/C was 100 % of control under setting [8]; 99 % of control under setting [9]; 99 % of control (dose: 240.0 mg/kg/injection, schedule: Q01DX005 (ip), vehicle: Klucel (hydroxypropylcellulose) (HPC)).

With `NC(=S)N/N=C/C=N/NC(N)=S`, the T/C (dose: 50.0 mg/kg/injection, schedule: Q01DX009 (ip), vehicle: saline) was 92 % of control; the T/C (dose: 100.0 mg/kg/injection, schedule: Q01DX009 (ip), vehicle: saline) is 90 % of control; the T/C (dose: 200.0 mg/kg/injection, schedule: Q01DX009 (ip), vehicle: saline) is 101 % of control.

Consider `COc1cc(/C=C/C(NC(C)=O)c2cccc(O)c(=O)c2)cc(OC)c1OC` (centres undefined), for which the T/C runs as follows: (dose: 12.5 mg/kg/injection, schedule: Q01DX009 (ip), vehicle: Klucel (hydroxypropylcellulose) (HPC)) 90 % of control; (dose: 25.0 mg/kg/injection, schedule: Q01DX009 (ip), vehicle: Klucel (hydroxypropylcellulose) (HPC)) 93 % of control; under setting [13], 98 % of control; under setting [14], 107 % of control; under setting [15], 116 % of control.

For the compound `CCN(CC)CCNC1=CC(=S)NC(C)(C)C1`, the T/C is 103 % of control under setting [10]; 94 % of control under setting [11]; 106 % of control under setting [12]; 94 % of control (dose: 200.0 mg/kg/injection, schedule: Q01DX009 (ip), vehicle: saline with Tween-80).
